The values that follow come from patent US9012470B2 (Dart NeuroScience (Cayman) Ltd., priority 2010, dated 2015).

For assay [1], the system named is benzodiazepine site of GABAA. As to the kind of experiment: Binding assay, benzodiazepine site of GABAA (binding assay 1: rat brain, (3H)-flunitrazepam; binding assay 2: bovine hippocampal membranes, [3H]-RY80). The settings on record: radioligand binding; for % Inhibition at 0.1 μM: 0.1 μM test compound; for % Inhibition at 10 μM: 10 μM test compound. As for the experimental part: The ability of a compound disclosed herein to act as ligand to the benzodiazepine site of GABAA can be determined using pharmacological models which are well known in the art using the following assay.
Binding assay 1: Whole brain (except cerebellum) of male Wistar derived rats weighing 175±25 g were used to prepare GABAA central benzodiazepine receptor in Na—K phosphate buffer pH 7.4. A 5 mg aliquot was incubated with 1 nM (^3H)-flunitrazepam for 60 minutes at 25° C. Experiments were performed in the presence or absence of 30 μM of GABA. Non-specific binding was estimated in the presence of 10 μM of diazepam. Membranes were filtered and washed, the filters were then counted to determine (^3H)-flunitrazepam specifically bound. Test compounds were tested in duplicate according to the required concentrations (Damm, H. W., et al. (1978) Res. Comm. Chem. Pathol. Pharmacol. 22: 597-560 incorporated herein in its entirety; Speth, R. C., et al. (1979) Life Sci. 24: 351-357 incorporated herein in its entirety).
Receptor Source: Bovine hippocampal membranes
Radioligand: [3H]-RY80 (40-80 Ci/mmol)
Final ligand concentration—[0.8 nM]
Non-specific Determinant: L-655,708—[0.5 μM]
Binding assay 2 followed procedures based on Li and Szabo (Li M., Szabo A., Rosenberg H. Evaluation of native GABAA receptors containing an α5 subunit. Eur. J. Pharmacol. 413: 63-72 (2001)). Incubation Conditions: Reactions are carried out in 50 mM Tris-Citrate (pH 7.8) containing 200 mM NaCl at 0-4° C. for 60 minutes. The reaction is terminated by rapid vacuum filtration onto glass fiber filters. Radioactivity trapped onto the filters is determined and compared to control values in order to ascertain any interactions of test compound with the benzodiazepine (central) binding site.

Assay [2] relates to GABAA receptors. As to the kind of experiment: Electrophysiology assay, two-electrode voltage clamp in Xenopus oocytes expressing GABAA receptors. The class given is cell-based. The settings on record: GABA EC10, screening concentration of 10 μM, subunit combination not stated. As for the experimental part:
mRNA was prepared from lyophilized plasmid pellets containing cDNA inserts encoding the specific GABAA receptor subunit. cDNAs encoding the α2, α3, and γ3 subunits were subcloned into pBluescript, SK^−. cDNAs encoding the α1 and α5 subunits were subcloned into prC while cDNA encoding the β2 subunit was subcloned into pcDNA1. The cDNA construct encoding the γ2s subunit is in the pGH19 expression construct. Overnight cultures of transformed DH5a bacterial cells were performed to grow sufficient quantities for maxiprep isolation of the plasmid cDNA. The resulting plasmid cDNA was linearized by digestion with an appropriate restriction enzyme that cleaves distal to the cDNA insert (XbaI for α1,2, β2, and γ3 or NotI for α3,5 and γ2, respectively). Following digestion, plasmid cDNA was treated with proteinase K and extracted with phenol/chloroform/isoamyl alcohol, followed by ethanol precipitation. cDNA quality was assessed by agarose-gel electrophoresis (1.5% agarose gel). Samples were stored at −20° C. until use. In vitro transcription was performed with T7 RNA polymerase. mRNA was then stored at −80° C. until use. Plasmids were linearized with appropriate restriction enzymes before in vitro transcription using the Message Machine kit (Ambion, Austin, Tex.).
GABAA Receptor Expression in Xenopus oocytes.
GABAA receptor expression in Xenopus oocytes: Following 45 min of 0.15% Tricaine anesthesia, an ovarian section containing the follicular oocytes was removed from the frog through a lateral abdominal incision. Oocytes were immediately placed in a calcium-free solution (NaCl 96 mM, MgCl2 1 mM, KCl 2 mM, Hepes 50 mM, pyruvate 2.5 mM, gentamycin 100 μg/mL, penicillin-streptomycin 50 U/mL, pH 7.4). Following 1.5-2 hour incubation in 0.2% collagenase (type II, Sigma Chemical Co., St. Louis, Mo.) at room temperature, individual Dumont stage V and VI oocytes were transferred to an incubator and maintained overnight in Barth's solution (NaCl 84 mM, NaHCO3 2.4 mM, MgSO4 0.82 mM, KCl 1 mM, Ca(NO3)2 0.33 mM, CaCl2 0.41 mM, Tris/HCl 7.5 mM, pyruvate 2.5 mM, gentamycin 50 μg/mL, penicillin-streptomycin, 100 units/mL, pH 7.4) at 18-20° C. and used for experiments 1-5 days post-injection. Oocytes were injected solution using an electronic microinjector (Drummond, Broomall, Pa.) with 50 nL of RNA containing 0.3-0.5 ng of each subunit RNA in a 1:1:1 ratio. The injected oocytes were used for experiments after 1-5 days of incubation in Barth's solution at 18-20° C.
Measurements of ion currents from oocytes expressing GABAA receptors were performed using a Warner two-electrode voltage-clamp amplifier (Warner Instruments, Inc., Foster City, Calif.) (Park-Chung, M., et al. (1999) Brain Res. 830: 72-87 incorporated herein in its entirety). Microelectrodes were fabricated from borosilicate glass capillaries with a programmed pipette puller (Sutter Instrument Co., Calif.). Microelectrode resistance was 1-3 MΩ when filled with 3 M KCl. The oocyte recording chamber was continuously perfused with Ringer solution. Oocytes were clamped at a holding potential of −70 mV during data acquisition. The membrane current was filtered at 10 Hz and sampled at 100 Hz. Compounds were applied by a gravity-driven external perfusion system. The working volume of the recording chamber was 30 μL and the rate of the perfusion was approximately 50 μL/sec. Compound application was 10-20 sec followed by a 90 sec wash. Data acquisition and external perfusion was computer controlled by custom-developed software. All experiments were performed at room temperature (22-24° C.). Dose-response data from each oocyte were fitted to the Hill equation by non-linear regression using the equation: IGABA=Emax/(1+(EC50/c)^n^H)
Emax is the maximum response, EC50 is the concentration producing 50% of the maximal response, nH is the Hill coefficient and c is the concentration of agonist. […]
For orientation: Two-electrode voltage clamp is typically applied to oocytes expressing channels or transporters.

Molecules are shown by their SMILES. Where a name gives a salt, the structure may show the parent alone.

Take `CNC(=O)n1ncc2c3nn(-c4ccccc4)c(=O)c-3c[nH]c21` [Compound 6c, N-methyl-3-oxo-2-phenyl-2,3-dihydrodipyrazolo[3,4-b:3′,4′-d]pyridine-6(5H)-carboxamide]: in assay [1], the “% Inhibition at 0.1 μM” value is “B (B indicates % inhibition <80% and >20%)”; the “% Inhibition at 10 μM” value is “A (A indicates % inhibition >80%)”. In addition, the “EP Modulation” value in assay [2] was “D (D indicates negative modulation >20%)”.
Regarding `CN(C)CCNC(=O)n1ncc2c3nn(-c4ccccc4)c(=O)c-3c[nH]c21` [Compound 7a, N-(2-(dimethylamino)ethyl)-3-oxo-2-phenyl-2,3-dihydrodipyrazolo[3,4-b:3′,4′-d]pyridine-6(5H)-carboxamide], in assay [1], the “% Inhibition at 0.1 μM” value is given as “C (C indicates % inhibition <20%)”; the “% Inhibition at 10 μM” value was “B (B indicates % inhibition <80% and >20%)”. In addition, in assay [2], the “EP Modulation” value was “E (E indicates negative modulation <20%)”.
For the molecule `CCNC(=O)n1ncc2c3nn(-c4ccc(Cl)cc4)c(=O)c-3c[nH]c21` [Compound 6o], in assay [1], the “% Inhibition at 0.1 μM” value was “B (B indicates % inhibition <80% and >20%)”; the “% Inhibition at 10 μM” value was “A (A indicates % inhibition >80%)”. Moreover, in assay [2], the “EP Modulation” value is reported as “E (E indicates negative modulation <20%)”.
Regarding `CCNC(=O)n1ncc2c3nn(-c4ccccn4)c(=O)c-3c[nH]c21` [Compound 6m, N-ethyl-3-oxo-2-(pyridin-2-yl)-2,3-dihydrodipyrazolo[3,4-b:3′,4′-d]pyridine-6(5H)-carboxamide], in assay [1], the “% Inhibition at 0.1 μM” value is “C (C indicates % inhibition <20%)” and the “% Inhibition at 10 μM” value was “A (A indicates % inhibition >80%)”. The “EP Modulation” value in assay [2] is listed as “D (D indicates negative modulation >20%)”.
With `CCCCNC(=O)n1cc2[nH]cc3c(=O)n(-c4ccccc4)nc-3c2c1` [Compound 13i, N-Butyl-3-oxo-2-phenyl-2,3-dihydropyrazolo[3,4-d]pyrrolo[3,4-b]pyridine-7(5H)-carboxamide], in assay [1], the “% Inhibition at 0.1 μM” value is on record as “A (A indicates % inhibition >80%)” and the “% Inhibition at 10 μM” value is reported as “A (A indicates % inhibition >80%)”. Also, the “EP Modulation” value in assay [2] is “E (E indicates negative modulation <20%)”.
As to `CCNC(=O)n1ncc2c3nn(-c4ccc(C(C)C)cc4)c(=O)c-3c[nH]c21` [Compound 6z, N-ethyl-2-(4-isopropylphenyl)-3-oxo-2,3-dihydrodipyrazolo[3,4-b:3′,4′-d]pyridine-6(5H)-carboxamide. TFA], the “% Inhibition at 10 μM” value in assay [1] is listed as “A (A indicates % inhibition >80%)”. Moreover, the “EP Modulation” value in assay [2] is reported as “E (E indicates negative modulation <20%)”.
For the molecule `CCCNC(=O)n1ncc2c3nn(-c4ccccc4)c(=O)c-3c[nH]c21` [Compound 6d, 3-oxo-2-phenyl-N-propyl-2,3-dihydrodipyrazolo[3,4-b:3′,4′-d]pyridine-6(5H)-carboxamide], in assay [1], the “% Inhibition at 10 μM” value is given as “A (A indicates % inhibition >80%)”. Moreover, the “EP Modulation” value in assay [2] is reported as “E (E indicates negative modulation <20%)”.
As to `CCNC(=O)n1nc2[nH]cc3c(=O)n(-c4ccccc4)nc-3c2c1C` [Compound 6av, N-ethyl-8-methyl-3-oxo-2-phenyl-2,3-dihydrodipyrazolo[3,4-b:3′,4′-d]pyridine-7(5H)-carboxamide], in assay [1], the “% Inhibition at 0.1 μM” value is “B (B indicates % inhibition <80% and >20%)”; the “% Inhibition at 10 μM” value is “A (A indicates % inhibition >80%)”. Further, the “EP Modulation” value in assay [2] was “E (E indicates negative modulation <20%)”.
`CCNC(=O)n1cc2[nH]cc3c(=O)n(-c4ccc(F)cc4F)nc-3c2c1` [Compound 13g, 2-(2,4-Difluorophenyl)-N-ethyl-3-oxo-2,3-dihydropyrazolo[3,4-d]pyrrolo[3,4-b]pyridine-7(5H)-carboxamide]: in assay [1], the “% Inhibition at 0.1 μM” value was “B (B indicates % inhibition <80% and >20%)”; the “% Inhibition at 10 μM” value is listed as “A (A indicates % inhibition >80%)”. The “EP Modulation” value in assay [2] is listed as “D (D indicates negative modulation >20%)”.
`CCNC(=O)n1ncc2c3nn(-c4ccsc4)c(=O)c-3c[nH]c21` [Compound 6u, N-ethyl-3-oxo-2-(thiophen-3-yl)-2,3-dihydrodipyrazolo[3,4-b:3′,4′-d]pyridine-6(5H)-carboxamide]: the “% Inhibition at 10 μM” value in assay [1] is reported as “A (A indicates % inhibition >80%)”. For the same molecule, the “EP Modulation” value in assay [2] is reported as “D (D indicates negative modulation >20%)”.
Turning to `CNC(=O)n1cc2[nH]cc3c(=O)n(-c4ccccc4)nc-3c2c1` [Compound 13a, N-Methyl-3-oxo-2-phenyl-2,3-dihydropyrazolo[3,4-d]pyrrolo[3,4-b]pyridine-7(5H)-carboxamide], in assay [1], the “% Inhibition at 0.1 μM” value was “A (A indicates % inhibition >80%)” and the “% Inhibition at 10 μM” value is “A (A indicates % inhibition >80%)”. Also, the “EP Modulation” value in assay [2] is “D (D indicates negative modulation >20%)”.
Take `CCCNC(=O)n1cc2[nH]cc3c(=O)n(-c4ccccc4)nc-3c2c1` [Compound 13c, 3-Oxo-2-phenyl-N-propyl-2,3-dihydropyrazolo[3,4-d]pyrrolo[3,4-b]pyridine-7(5H)-carboxamide]: in assay [1], the “% Inhibition at 0.1 μM” value is “A (A indicates % inhibition >80%)” and the “% Inhibition at 10 μM” value was “A (A indicates % inhibition >80%)”. The “EP Modulation” value in assay [2] is “D (D indicates negative modulation >20%)”.
For the molecule `O=C(NCC(F)(F)F)n1ncc2c3nn(-c4ccccc4)c(=O)c-3c[nH]c21` [Compound 7b, 3-oxo-2-phenyl-N-(2,2,2-trifluoroethyl)-2,3-dihydrodipyrazolo[3,4-b:3′,4′-d]pyridine-6(5H)-carboxamide], in assay [1], the “% Inhibition at 0.1 μM” value was “B (B indicates % inhibition <80% and >20%)”; the “% Inhibition at 10 μM” value is “A (A indicates % inhibition >80%)”. Moreover, the “EP Modulation” value in assay [2] is listed as “D (D indicates negative modulation >20%)”.
Turning to `CCNC(=O)n1cc2[nH]cc3c(=O)n(-c4ccccc4F)nc-3c2c1` [Compound 13d, N-Ethyl-2-(2-fluorophenyl)-3-oxo-2,3-dihydropyrazolo[3,4-d]pyrrolo[3,4-b]pyridine-7(5H)-carboxamide], in assay [1], the “% Inhibition at 0.1 μM” value is “B (B indicates % inhibition <80% and >20%)”; the “% Inhibition at 10 μM” value is on record as “A (A indicates % inhibition >80%)”. Moreover, the “EP Modulation” value in assay [2] was “D (D indicates negative modulation >20%)”.
